# According to patent US9242970B2 (ACTELION PHARMACEUTICALS LTD., priority 2010, dated 2016):
# Read-outs that look alike come from different tables or passages of the source.
# What was measured:
# human orexin-1 receptor = human orexin-1 receptor (Homo sapiens (Human), UniProt O43613); test: In vitro assay: intracellular calcium measurements (FLIPR), antagonistic activity; format: cell-based; details: CHO cells, 3 nM orexin-A, marked values are geometric means of n = 2-6, read-out: IC50 OX1
# human orexin-2 receptor = human orexin-2 receptor (Homo sapiens (Human), UniProt O43614); test: as above; format: cell-based
# Sequence of human orexin-2 receptor (O43614 whole entry): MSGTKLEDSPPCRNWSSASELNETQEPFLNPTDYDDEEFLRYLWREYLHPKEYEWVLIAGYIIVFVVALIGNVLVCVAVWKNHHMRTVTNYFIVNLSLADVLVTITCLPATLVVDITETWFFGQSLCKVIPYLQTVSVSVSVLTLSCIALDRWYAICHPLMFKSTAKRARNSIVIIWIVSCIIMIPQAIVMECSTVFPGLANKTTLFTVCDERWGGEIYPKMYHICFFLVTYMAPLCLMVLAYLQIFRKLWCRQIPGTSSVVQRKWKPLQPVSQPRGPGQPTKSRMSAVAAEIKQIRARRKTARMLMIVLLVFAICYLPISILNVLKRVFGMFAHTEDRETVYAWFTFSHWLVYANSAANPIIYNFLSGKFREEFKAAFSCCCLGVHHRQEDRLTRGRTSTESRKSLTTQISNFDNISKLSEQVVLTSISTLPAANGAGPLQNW
# [1] = CHO cells, 3 nM orexin-A, compound incubation 120 min, marked values are geometric means of n = 2-6, read-out: IC50 OX2
# [2] = compound incubation time of 10 min
# [3] = CHO cells, 3 nM orexin-A, compound incubation time of 10 min, marked values are geometric means of n = 2-6, read-out: IC50 OX2
# Sequence of human orexin-1 receptor (O43613 whole entry): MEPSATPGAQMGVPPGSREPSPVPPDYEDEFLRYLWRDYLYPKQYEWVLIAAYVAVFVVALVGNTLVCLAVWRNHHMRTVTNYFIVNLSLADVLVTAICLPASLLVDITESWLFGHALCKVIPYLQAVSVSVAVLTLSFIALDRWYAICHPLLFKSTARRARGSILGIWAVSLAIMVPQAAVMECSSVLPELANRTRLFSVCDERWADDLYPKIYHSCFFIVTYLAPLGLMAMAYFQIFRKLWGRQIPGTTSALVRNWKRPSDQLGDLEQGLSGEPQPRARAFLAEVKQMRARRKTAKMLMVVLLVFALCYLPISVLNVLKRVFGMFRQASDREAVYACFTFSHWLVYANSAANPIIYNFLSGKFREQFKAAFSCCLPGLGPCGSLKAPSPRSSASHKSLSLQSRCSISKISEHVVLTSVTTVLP
Compound,IC50 (human orexin-1 receptor; compound incubation 120 min) [µM],IC50 (human orexin-2 receptor; [1]) [µM],IC50 (human orexin-1 receptor; [2]) [µM],IC50 (human orexin-2 receptor; [3]) [µM],IC50 (human orexin-2 receptor) [µM]
"COc1ccc2c(C)noc2c1C1CCCC(=O)N1Cc1cccc(-c2ccccc2)c1 (stereo not shown) [Example 235, 1-([1,1′-biphenyl]-3-ylmethyl)-6-(6-methoxy-3-methylbenzo[d]isoxazol-7-yl)piperidin-2-one]",0.288,0.194,,,
"COc1cccc(OC)c1C1CCC(=O)N1Cc1cccc(-c2noc(C)n2)c1 (stereo not shown) [Example 136, 5-(2,6-dimethoxyphenyl)-1-(3-(5-methyl-1,2,4-oxadiazol-3-yl)benzyl)pyrrolidin-2-one]",0.219,0.547,,,
"CC1CC(c2c(F)cccc2OCCF)N(Cc2ccc(OC(F)(F)F)cc2)C1=O (stereo not shown) [Example 414, 5-(2-fluoro-6-(2-fluoroethoxy)phenyl)-3-methyl-1-(4-(trifluoromethoxy)benzyl)pyrrolidin-2-one]",1.5,0.044,,,
"COc1cccc(OCCO)c1C1CCCC(=O)N1Cc1ccc(OC(F)(F)F)cc1 (stereo not shown) [Example 213, 6-(2-(2-hydroxyethoxy)-6-methoxyphenyl)-1-(4-(trifluoromethoxy)benzyl)piperidin-2-one]",,,1.38,0.085,
"COc1cccc(OC)c1C1CC(C)C(=O)N1Cc1cccc(OC(F)(F)F)c1 (stereo not shown) [Example 200, 5-(2,6-dimethoxyphenyl)-3-methyl-1-(3-(trifluoromethoxy)benzyl)pyrrolidin-2-one]",,,0.108,0.108,
"COc1cncc(OC)c1C1CCCCC(=O)N1Cc1cccc(-c2ccccc2)c1 (stereo not shown) [Example 275, 1-([1,1′-biphenyl]-3-ylmethyl)-7-(3,5-dimethoxypyridin-4-yl)azepan-2-one]",0.05,0.08,,,
"COc1cccc(OC)c1C1CCCC(=O)N1Cc1ccc(OC(F)F)cc1 (stereo not shown) [Example 165, 1-(4-(difluoromethoxy)benzyl)-6-(2,6-dimethoxyphenyl)piperidin-2-one]",,,0.224,0.031,
"COc1cccc(OC)c1C1CC(C)C(=O)N1Cc1cccc(OC(F)F)n1 (stereo not shown) [Example 201, 1-((6-(difluoromethoxy)pyridin-2-yl)methyl)-5-(2,6-dimethoxyphenyl)-3-methylpyrrolidin-2-one]",,,0.955,0.192,
"COc1cccc(OC)c1C1CCC(=O)N1Cc1ccc(F)cc1 (stereo not shown) [Example 197, 5-(2,6-dimethoxyphenyl)-1-(4-fluorobenzyl)pyrrolidin-2-one]",,,> 10.4,1.3,
"CCOc1cccc(F)c1C1CC(C)C(=O)N1Cc1cccc(-c2ncc(C)s2)c1 (stereo not shown) [Example 384, 5-(2-ethoxy-6-fluorophenyl)-3-methyl-1-(3-(5-methylthiazol-2-yl)benzyl)pyrrolidin-2-one]",0.111,0.002,,,
"COc1cccc(F)c1C1CC(C)C(=O)N1Cc1ccc2oc3ccccc3c2c1 (stereo not shown) [Example 362, 1-(dibenzo[b,d]furan-2-ylmethyl)-5-(2-fluoro-6-methoxyphenyl)-3-methylpyrrolidin-2-one]",0.085,0.006,,,
"COc1cccc(OC)c1C1CCC(=O)N1Cc1cccc(-n2cccn2)c1 (stereo not shown) [Example 126, 1-(3-(1H-pyrazol-1-yl)benzyl)-5-(2,6-dimethoxyphenyl)pyrrolidin-2-one]",0.165,0.839,,,
"COc1cccc(OC)c1C1CCC(=O)N1Cc1cccc(-c2ccccc2)c1 (stereo not shown) [Example 113, 1-([1,1′-biphenyl]-3-ylmethyl)-5-(2,6-dimethoxyphenyl)pyrrolidin-2-one]",0.029,0.034,,,
"COc1ccc2ccccc2c1[C@@H]1C[C@@H](O)C(=O)N1Cc1ccc(OC(F)(F)F)cc1 (racemic) [Example 312, rac-(3R*,5S*)-3-hydroxy-5-(2-methoxynaphthalen-1-yl)-1-(4-(trifluoromethoxy)benzyl)pyrrolidin-2-one]",2.2,0.826,,,
"COc1ccnc(OC)c1C1CCCC(=O)N1Cc1csc(-c2ccccc2)n1 (stereo not shown) [Example 56, 6-(2,4-dimethoxypyridin-3-yl)-1-((2-phenylthiazol-4-yl)methyl)piperidin-2-one]",0.141,0.006,,,
"COc1cccc(OC)c1C1CCCC(=O)N1Cc1cccc(-n2ccnc2)c1 (stereo not shown) [Example 27, 1-(3-(1H-imidazol-1-yl)benzyl)-6-(2,6-dimethoxyphenyl)piperidin-2-one]",0.136,0.181,,,
"COCCOc1cccc(OC)c1C1CCCC(=O)N1Cc1ccc(OC(F)(F)F)cc1 (stereo not shown) [Example 211, 6-(2-methoxy-6-(2-methoxyethoxy)phenyl)-1-(4-(trifluoromethoxy)benzyl)piperidin-2-one]",,,2.78,0.664,
"COc1cccc(OC)c1C1CC(C)C(=O)N1Cc1cccc(-c2ccccc2)c1 (stereo not shown) [Example 122, 1-([1,1′-biphenyl]-3-ylmethyl)-5-(2,6-dimethoxyphenyl)-3-methylpyrrolidin-2-one]",0.018,0.07,,,
"COc1cccc(OC)c1C1CCCC(=O)N1Cc1ccc(S(C)(=O)=O)cc1 (stereo not shown) [Example 248, 6-(2,6-dimethoxyphenyl)-1-(4-(methylsulfonyl)benzyl)piperidin-2-one]",,,7.25,1.71,

Compound,IC50 (human orexin-1 receptor; compound incubation 120 min) [µM],IC50 (human orexin-2 receptor; [1]) [µM],IC50 (human orexin-1 receptor; [2]) [µM],IC50 (human orexin-2 receptor; [3]) [µM],IC50 (human orexin-2 receptor) [µM]
"COc1cccc(OC)c1C1CCC(=O)N1Cc1cccc(-c2ccccc2)n1 (stereo not shown) [Example 121, 5-(2,6-dimethoxyphenyl)-1-((6-phenylpyridin-2-yl)methyl)pyrrolidin-2-one]",0.183,0.105,,,
"CCOc1ccc(CN2C(=O)CCCC2c2c(OC)cccc2OC)cc1 (stereo not shown) [Example 205, 6-(2,6-dimethoxyphenyl)-1-(4-ethoxybenzyl)piperidin-2-one]",,,0.202,0.065,
"O=C1CCCC(c2ccccc2OC(F)(F)F)N1Cc1ccc(OC(F)(F)F)cc1 (stereo not shown) [Example 252, 1-(4-(trifluoromethoxy)benzyl)-6-(2-(trifluoromethoxy)phenyl)piperidin-2-one]",,,9.37,2.66,
"CCOc1cccc(OC)c1C1CCCC(=O)N1Cc1ccc(OC(F)(F)F)cc1 (stereo not shown) [Example 212, 6-(2-ethoxy-6-methoxyphenyl)-1-(4-(trifluoromethoxy)benzyl)piperidin-2-one]",,,0.216,0.037,
"COc1cccc(OC)c1C1CCCCC(=O)N1Cc1cccc(-c2csc(C)n2)c1 (stereo not shown) [Example 91, 7-(2,6-dimethoxyphenyl)-1-(3-(2-methylthiazol-4-yl)benzyl)azepan-2-one]",0.001,0.003,,,
"COc1cccc(OC)c1C1CCCC(=O)N1Cc1ccc(Oc2ccccc2)cc1 (stereo not shown) [Example 164, 6-(2,6-dimethoxyphenyl)-1-(4-phenoxybenzyl)piperidin-2-one]",,,0.409,0.027,
CCOc1cc(F)ccc1[C@@H]1C[C@H](Cl)C(=O)N1Cc1ccc(OC(F)(F)F)cc1 (racemic) [Example 345],0.745,,,,0.462
"COc1cccc(OC)c1C1CCCC(=O)N1Cc1cccc(OC(F)F)c1 (stereo not shown) [Example 178, 1-(3-(difluoromethoxy)benzyl)-6-(2,6-dimethoxyphenyl)piperidin-2-one]",,,0.215,0.078,
"COc1cccc(OC)c1C1CCCC(=O)N1Cc1cccc(-c2cscn2)c1 (stereo not shown) [Example 45, 6-(2,6-dimethoxyphenyl)-1-(3-(thiazol-4-yl)benzyl)piperidin-2-one]",0.012,0.017,,,
"COc1cccc(OC)c1C1CCCCC(=O)N1Cc1cnc2ccccc2c1 (stereo not shown) [Example 80, 7-(2,6-dimethoxyphenyl)-1-(quinolin-3-ylmethyl)azepan-2-one]",0.715,1.04,,,
"COc1cccc(OC)c1C1CCCC(=O)N1Cc1cccc(-c2ccccc2)n1 (stereo not shown) [Example 11, 6-(2,6-dimethoxyphenyl)-1-((6-phenylpyridin-2-yl)methyl)piperidin-2-one]",0.034,0.043,,,
"COc1cccc(OC)c1C1CC(C)C(=O)N1Cc1cccc(-c2ccccn2)c1 (stereo not shown) [Example 140, 5-(2,6-dimethoxyphenyl)-3-methyl-1-(3-(pyridin-2-yl)benzyl)pyrrolidin-2-one]",0.01,0.073,,,
"COc1cccc(OC)c1C1CCCC(=O)N1Cc1ccc(N2CCCC2)cc1 (stereo not shown) [Example 245, 6-(2,6-dimethoxyphenyl)-1-(4-(pyrrolidin-1-yl)benzyl)piperidin-2-one]",,,1.07,0.132,
"COc1ccc2nc(C)oc2c1C1CCCC(=O)N1Cc1cccc(-c2ccccc2)c1 (stereo not shown) [Example 440, 1-([1,1′-biphenyl]-3-ylmethyl)-6-(6-methoxy-2-methylbenzo[d]oxazol-7-yl)piperidin-2-one]",0.046,0.091,,,
"CCOc1cc(F)cc(F)c1[C@@H]1C[C@@H](O)C(=O)N1Cc1ccc(OC(F)(F)F)cc1 (racemic) [Example 431, rac-(3R*,5S*)-5-(2-ethoxy-4,6-difluorophenyl)-3-hydroxy-1-(4-(trifluoromethoxy)benzyl)pyrrolidin-2-one]",1.49,0.255,,,
"O=C1CCCC(c2c(F)cccc2C(F)(F)F)N1Cc1ccc(OC(F)(F)F)cc1 (stereo not shown) [Example 227, 6-(2-fluoro-6-(trifluoromethyl)phenyl)-1-(4-(trifluoromethoxy)benzyl)piperidin-2-one]",,,3.5,5.9,
"COc1ncnc(OC)c1C1CCCC(=O)N1Cc1cccc(-c2ccccc2)c1 (stereo not shown) [Example 270, 1-([1,1′-biphenyl]-3-ylmethyl)-6-(4,6-dimethoxypyrimidin-5-yl)piperidin-2-one]",0.568,0.412,,,
"CCOc1cccc(F)c1[C@@H]1C[C@@H](O)C(=O)N1Cc1ccc(OC(F)(F)F)cc1 (racemic) [Example 334, rac-(3R*,5S*)-5-(2-ethoxy-6-fluorophenyl)-3-hydroxy-1-(4-(trifluoromethoxy)benzyl)pyrrolidin-2-one]",2.12,0.033,,,
"COc1cccc(OC)c1C1CCCC(=O)N1Cc1ccnc(-c2nccs2)c1 (stereo not shown) [Example 219, 6-(2,6-dimethoxyphenyl)-1-((2-(thiazol-2-yl)pyridin-4-yl)methyl)piperidin-2-one]",0.019,0.009,,,
